In ChEMBL document CHEMBL2086385, “Synthesis and antimicrobial evaluation of L-phenylalanine-derived C5-substituted rhodanine and chalcone derivatives containing thiobarbituric acid or 2-thioxo-4-thiazolidinone” (2012):

Experiments:
Assay type in all cases: functional
Staphylococcus aureus [1] = assay: Antibacterial activity against Staphylococcus aureus KCTC 209 after 24 hrs by broth microdilution method; settings: KCTC 209, 24 h
Staphylococcus aureus [2] = assay: Antibacterial activity against Staphylococcus aureus KCTC 503 after 24 hrs by broth microdilution method; settings: KCTC 503, 24 h
Staphylococcus aureus [3] = assay: Antibacterial activity against Staphylococcus aureus RN4220 after 24 hrs by broth microdilution method; settings: RN4220, 24 h
Escherichia coli = assay: Antibacterial activity against Escherichia coli CCARM 1356 after 24 hrs by broth microdilution method; settings: CCARM 1356, 24 h
Staphylococcus aureus [4] = assay: Antibacterial activity against methicillin-resistant Staphylococcus aureus CCARM 3167 clinical isolate after 24 hrs by broth microdilution method; settings: CCARM 3167, 24 h
Staphylococcus aureus [5] = assay: Antibacterial activity against methicillin-resistant Staphylococcus aureus CCARM 3506 clinical isolate after 24 hrs by broth microdilution method; settings: CCARM 3506, 24 h
Staphylococcus aureus [6] = assay: Antibacterial activity against quinolone-resistant Staphylococcus aureus CCARM 3505 clinical isolate after 24 hrs by broth microdilution method; settings: CCARM 3505, 24 h
Staphylococcus aureus [7] = assay: Antibacterial activity against quinolone-resistant Staphylococcus aureus CCARM 3519 clinical isolate after 24 hrs by broth microdilution method; settings: CCARM 3519, 24 h

Measured: MIC

O=Cc1ccc(/C=C/C(=O)c2ccc(Cl)cc2Cl)cc1
> 64 µg/mL: all assays above

O=Cc1ccc(/C=C/C(=O)c2ccccc2F)cc1
> 64 µg/mL: all assays above

O=Cc1ccc(/C=C/C(=O)c2ccc(F)cc2)cc1
> 64 µg/mL: all assays above

O=Cc1ccc(/C=C/C(=O)c2ccccc2Cl)cc1
> 64 µg/mL: all assays above

O=Cc1ccc(/C=C/C(=O)c2cccc(Cl)c2)cc1
> 64 µg/mL: all assays above

O=Cc1ccc(/C=C/C(=O)c2ccc(Cl)cc2)cc1
> 64 µg/mL: all assays above

O=Cc1ccc(/C=C/C(=O)c2ccccc2Br)cc1
> 64 µg/mL: all assays above

O=Cc1ccc(/C=C/C(=O)c2cccc(Br)c2)cc1
> 64 µg/mL: all assays above

O=Cc1ccc(/C=C/C(=O)c2ccc(Br)cc2)cc1
> 64 µg/mL: all assays above

Cc1ccc(C(=O)/C=C/c2ccc(C=O)cc2)cc1
> 64 µg/mL: all assays above

Cc1ccc(C(=O)/C=C/c2ccc(C=O)cc2)c(C)c1
> 64 µg/mL: all assays above

COc1ccccc1C(=O)/C=C/c1ccc(C=O)cc1
> 64 µg/mL: all assays above

COc1cccc(C(=O)/C=C/c2ccc(C=O)cc2)c1
> 64 µg/mL: all assays above

COc1ccc(C(=O)/C=C/c2ccc(C=O)cc2)cc1
> 64 µg/mL: all assays above

CC(=O)Nc1ccc(C(=O)/C=C/c2ccc(C=O)cc2)cc1
> 64 µg/mL: all assays above

O=Cc1ccc(/C=C/C(=O)c2ccccc2)cc1
> 64 µg/mL: all assays above
